Assay results: article PMC11351453 (BMC Chemistry, 2024)

Experiments:
A549 cells = test: cells; assay type: cell-based; conditions: Homo sapiens, A549, 72 h, read-out: IC50 A549
H1975 cells = test: AO staining analysis; assay type: cell-based; conditions: T001-10027877 0.5, 1, 2 µM, AZD9291 1 µM

In the case of `C=CC(=O)Nc1cc(Nc2nccc(-c3cn(C)c4ccccc34)n2)c(OC)cc1N(C)CCN(C)C` [AZD9291], the IC50 (A549 cells) is reported as 4.95 µM and the “cell morphology / induction of apoptosis (AO staining)” value (H1975 cells) is reported as “induced significant shrinkage of the cell membrane”.
